Consider 32 compounds from US11414384B2, “P300/CBP hat inhibitors” (Constellation Pharmaceuticals, Inc., priority 2018, dated 2022).

Assay [1] deals with p300 HAT domain (residues 1287-1666) (Homo sapiens (Human), UniProt Q09472). Description: p300 HAT SPA assay (scintillation proximity assay, acetylation of biotinylated H3(1-21) peptide). The following applies: p300 HAT domain; average of at least 2 replicate titrations; read-out: P300 HAT SPA IC50. It is filed as biochemical. A digest of the protocol:
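Purified p300 HAT domain reaction transferred to streptavidin plates to capture biotinylated H3(1-21) peptide, incubated 1.5 hr at RT, and read by scintillation proximity. IC50 values derived from concentration-response data.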

Assay [2] relates to acetylation of chromatin at H3K18 (catalyzed by p300 and CBP) in HCT-116 cells. As to the kind of experiment: H3K18Ac MSD cellular assay. The following applies: 2 hr treatment, average of at least 2 replicate titrations. Type of assay: cell-based. Here is the method: Select compounds were also evaluated in a H3K18Ac MSD cellular assay that measures the ability of compounds to inhibit the acetylation of chromatin at H3K18, a process catalyzed by p300 and CBP. In a typical experiment the p300 HAT inhibitory activity inside cells of the compounds described herein was determined in accordance with the following experimental method. 20 k HCT-116 cells per well are plated in 75 μL RPMI+10% FBS media the night before treatment. Compounds plated in DMSO at 4× final concentration are resuspended in 30 μL RPMI+10% FBS, then 25 μL is combined with corresponding wells containing cells. Treated cells are incubated for 2 hr at 37° C., then lysed in 500 μL final volume and frozen at −80° C. MSD plates (Meso Scale Discovery) are coated overnight at 4° C. with 60 μL 1:500α-total histone antibody (Millipore MAB3422) in PBS. Plates are then blocked with 5% BSA in TBST shaking at RT for 1 hr, washed, and 30 μL lysate added to each well for 2 hr shaking at RT. Plates are washed and 25 μL 1:216α-H3K18ac antibody (CST 9675) in PBS added, then incubated for 1 hr shaking at RT. Plates are washed again, then 25 μL 1:1000 Sulfo-Tag goat a-rabbit antibody (Meso Scale Discovery R32Ab-1) in PBS is added for 1 hr shaking at RT. Plates are washed once more, then 150 μL 1× Read Buffer (MSD #R92TD-3) is added to all wells and read on MSD SECTOR Imager 2400 using the conventional read setup.

p300 HAT domain (residues 1287-1666), sequence (Q09472 1287-1666): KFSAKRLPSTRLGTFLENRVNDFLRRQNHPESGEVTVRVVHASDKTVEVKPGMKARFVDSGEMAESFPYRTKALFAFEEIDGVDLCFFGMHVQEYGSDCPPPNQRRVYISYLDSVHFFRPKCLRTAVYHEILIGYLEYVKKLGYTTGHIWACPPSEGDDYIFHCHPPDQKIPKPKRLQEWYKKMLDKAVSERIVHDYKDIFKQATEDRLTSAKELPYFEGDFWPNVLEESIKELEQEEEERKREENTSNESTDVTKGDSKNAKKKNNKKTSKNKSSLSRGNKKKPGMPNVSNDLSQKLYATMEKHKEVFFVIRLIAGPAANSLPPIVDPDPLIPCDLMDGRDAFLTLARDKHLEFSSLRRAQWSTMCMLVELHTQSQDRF

Turning to `N#Cc1ccc(CCNC(C(=O)c2c[nH]c3cc(-n4ccnc4)ccc23)c2ccccc2)cc1` (single isomer, unassigned) [120 Isomer 2], in assay [1], the IC50 was determined as 172 nM. Also, it took 73.1 nM to reach a half-maximal effect in assay [2] (EC50).

Consider `O=C(c1c[nH]c2cc(-c3cccnn3)ccc12)C(NCCc1ccc(Cl)cc1)c1ccccc1` (single isomer, unassigned) [112 Isomer 2], for which the IC50 in assay [1] was 136 nM. The compound further displayed an EC50 in assay [2] (Homo sapiens, HCT-116, 2 h) of 42.6 nM.

For `CN1CCN(c2ccc3c(C(=O)C(NCCc4ccc(C#N)cc4)c4ccccc4)c[nH]c3c2)CC1` (single isomer, unassigned) [122 Isomer 2], in assay [1], the IC50 was found to be 44 nM. This compound also yielded an EC50 in assay [2] (Homo sapiens, HCT-116, 2 h) of 97.5 nM.

As to `N#Cc1ccc(CCNC(C(=O)c2c[nH]c3cc(C(=O)NC4COC4)ccc23)c2ccccc2)cc1` (single isomer, unassigned) [174 Isomer 1], the IC50 in assay [1] came to 965 nM. This compound yielded an EC50 in assay [2] of more than 1000 nM.

For the compound `N#Cc1ccc(CCNC(C(=O)c2c[nH]c3cc(C(=O)NC4CS(=O)(=O)C4)ccc23)c2ccccc2)cc1` (single isomer, unassigned) [166 Isomer 2], the IC50 in assay [1] was found to be 28.8 nM. Besides, the EC50 in assay [2] (Homo sapiens, HCT-116, 2 h) came out at 112 nM.

With `Cc1ccc2c(C(=O)C(NCCc3ccc(F)cc3)c3ccccc3)c[nH]c2c1` (single isomer, unassigned) [48 Isomer 2], the IC50 in assay [1] was found to be 3340 nM. The response in assay [2] (Homo sapiens, HCT-116, 2 h) was half-maximal at 3200 nM (EC50).

As to `Cn1cc(-c2ccc3c(C(=O)C(NCCc4ccc(C#N)cc4)c4ccccc4)c[nH]c3c2)nn1` (single isomer, unassigned) [114 Isomer 2], the IC50 in assay [1] was found to be 19 nM. The compound also showed an EC50 in assay [2] (Homo sapiens, HCT-116, 2 h) of 92.6 nM.

As to `O=C(c1c[nH]c2ccccc12)C(NCCc1ccc(Cl)cc1Cl)c1ccccc1` (single isomer, unassigned) [19 Isomer 2], the IC50 in assay [1] is 706 nM. For the same compound, the response in assay [2] (Homo sapiens, HCT-116, 2 h) was half-maximal at 282 nM (EC50).

For the compound `Cc1ccc2c(C(=O)C(NCCc3ccc(S(N)(=O)=O)cc3)c3ccccc3)c[nH]c2c1` (single isomer, unassigned) [56 Isomer 2], the IC50 in assay [1] stood at 3100 nM. The compound further displayed an EC50 in assay [2] (Homo sapiens, HCT-116, 2 h) of 1440 nM.

As for `Cn1cc(-c2ccc3c(C(=O)C(NCCc4ccc(C(N)=O)cc4)c4ccccc4)cnn3c2)cn1` (single isomer, unassigned) [179 Isomer 1], the IC50 in assay [1] turned out to be 302 nM. In assay [2] (Homo sapiens, HCT-116, 2 h), this compound displayed an EC50 of 192 nM.

On to `Cn1cc(-c2ccc3c(C(=O)C(NCCc4ccc(S(N)(=O)=O)cc4)c4ccccc4)c[nH]c3c2)cn1` (single isomer, unassigned) [66 Isomer 2], for which the IC50 in assay [1] amounted to 281 nM. In assay [2] (Homo sapiens, HCT-116, 2 h), this compound had an EC50 of 43.3 nM.

In the case of `Cn1cnc(-c2ccc3c(C(=O)C(NCCc4ccc(S(N)(=O)=O)cc4)c4ccccc4)c[nH]c3c2)c1` (single isomer, unassigned) [115 Isomer 2], in assay [1], the IC50 was found to be 389 nM. Also, in assay [2] (Homo sapiens, HCT-116, 2 h), the EC50 was determined as 530 nM.

Turning to `COCCn1cc(-c2ccc3c(C(=O)C(NCCc4ccc(C#N)cc4)c4ccccc4)c[nH]c3c2)cn1` (single isomer, unassigned) [96 Isomer 2], the IC50 in assay [1] is 62 nM. Besides, the EC50 in assay [2] (Homo sapiens, HCT-116, 2 h) was 26.4 nM.

Regarding `CC(CNC(C(=O)c1c[nH]c2ccccc12)c1ccccc1)c1ccc(Cl)cc1` (single isomer, unassigned) [26 Isomer 4], in assay [1], the IC50 amounted to 204 nM. Moreover, the midpoint of the response in assay [2], the EC50, lay at 139 nM.

Consider `O=C(c1c[nH]c2cc(-c3cccnc3)ccc12)C(NCCc1ccc(Cl)cc1)c1ccccc1` (single isomer, unassigned) [90 Isomer 2], for which the IC50 in assay [1] amounted to 591 nM. In assay [2] (Homo sapiens, HCT-116, 2 h), this compound returned an EC50 of 80 nM.

Regarding `CCNc1ccc(CCNC(C(=O)c2c[nH]c3ccccc23)c2ccccc2)cn1` (single isomer, unassigned) [53 Isomer 2], the IC50 in assay [1] came out at 4290 nM. Besides, the EC50 in assay [2] (Homo sapiens, HCT-116, 2 h) was 3470 nM.

Regarding `O=C(c1c[nH]c2ccccc12)C(NCCc1ccc(OC(F)(F)F)cc1)c1ccccc1` (single isomer, unassigned) [40 Isomer 2], the IC50 in assay [1] came out at 1310 nM. The compound further displayed an EC50 in assay [2] (Homo sapiens, HCT-116, 2 h) of 4010 nM.

For the compound `CC(Cc1ccc(Cl)cc1Cl)NC(C(=O)c1c[nH]c2cc(-c3cnn(C)c3)ccc12)c1ccccc1` (single isomer, unassigned) [97 Isomer 3], the IC50 in assay [1] is more than 30000 nM. This compound also showed an EC50 in assay [2] of more than 10000 nM.

With `Cn1cnc(-c2ccc3c(C(=O)[C@@H](NCCc4ccc(C(N)=O)cc4)c4ccccc4)c[nH]c3c2)c1` (single isomer, unassigned) [177 Isomer 2], the IC50 in assay [1] turned out to be 838 nM. The compound further registered an EC50 in assay [2] (Homo sapiens, HCT-116, 2 h) of 1270 nM.

Turning to `N#Cc1ccc(CCNC(C(=O)c2c[nH]c3ccccc23)c2ccccc2)cc1` (single isomer, unassigned) [58 Isomer 2], the half-maximal inhibitory concentration (IC50) in assay [1] was 201 nM. The EC50 in assay [2] (Homo sapiens, HCT-116, 2 h) is 477 nM.

Turning to `Cn1cc(-c2ccc3c(C(=O)C(NCCc4ccc(C(N)=O)cc4)c4ccccc4)c[nH]c3c2)cn1` (single isomer, unassigned) [139 Isomer 2], the IC50 in assay [1] was 511 nM. This compound also returned an EC50 in assay [2] (Homo sapiens, HCT-116, 2 h) of 53.4 nM.

As to `Cn1cc(-c2ccc3c(C(=O)C(NCCc4ccc(S(N)(=O)=O)cc4)c4ccccc4)cnn3c2)cn1` (single isomer, unassigned) [101 Isomer 2], the IC50 in assay [1] is 59.2 nM. In assay [2] (Homo sapiens, HCT-116, 2 h), this compound gave an EC50 of 47.1 nM.

Take `CC(Cc1ccc(Cl)cc1Cl)NC(C(=O)c1c[nH]c2cc(-c3cnn(C)c3)ccc12)c1ccccc1` (single isomer, unassigned) [97 Isomer 2]: the IC50 in assay [1] came to 6260 nM. In assay [2], a half-maximal response (EC50) required 780 nM.

For `N#Cc1ccc(CCNC(C(=O)c2c[nH]c3cc(C(=O)NCC(F)(F)F)ccc23)c2ccccc2)cc1` (single isomer, unassigned) [157 Isomer 2], in assay [1], the IC50 stood at 66 nM. The compound also came in with an EC50 in assay [2] (Homo sapiens, HCT-116, 2 h) of 36.4 nM.

Take `Cn1cc(-c2ccc3c(C(=O)C(NCCc4ccc(F)cc4F)c4ccccc4)c[nH]c3c2)cn1` (single isomer, unassigned) [85 Isomer 2]: the IC50 in assay [1] was 826 nM. The EC50 in assay [2] (Homo sapiens, HCT-116, 2 h) was determined as 92.6 nM.

For the compound `CNC(=O)CCc1ccc2c(C(=O)C(NCCc3ccc(F)cc3)c3ccccc3)c[nH]c2c1` (single isomer, unassigned) [158 Isomer 1], the IC50 in assay [1] turned out to be 1500 nM. The EC50 in assay [2] (Homo sapiens, HCT-116, 2 h) stood at 641 nM.

In the case of `Cn1cnc(-c2ccc3c(C(=O)C(NCCc4ccc(C#N)cc4)c4ccccc4)c[nH]c3c2)c1` (single isomer, unassigned) [113 Isomer 2], in assay [1], the IC50 was determined as 28 nM. In assay [2] (Homo sapiens, HCT-116, 2 h), the EC50 was 34.2 nM.

Consider `CC(=O)N1CCC(c2ccc3c(C(=O)C(NCCc4ccc(Cl)cc4)c4ccccc4)c[nH]c3c2)CC1` (single isomer, unassigned) [65 Isomer 2], for which the half-maximal inhibitory concentration (IC50) in assay [1] came to 422 nM. Also, in assay [2] (Homo sapiens, HCT-116, 2 h), the midpoint of the response, the EC50, lay at 71.7 nM.

Take `CC(Cc1ccc(Cl)cc1Cl)NC(C(=O)c1c[nH]c2cc(-c3cnn(C)c3)ccc12)c1ccccc1` (single isomer, unassigned) [97 Isomer 1]: in assay [1], the IC50 is 437 nM. This compound also showed an EC50 in assay [2] of 135 nM.

With `CCn1cc(-c2ccc3c(C(=O)C(NCCc4ccc(Cl)cc4)c4ccccc4)c[nH]c3c2)cn1` (single isomer, unassigned) [86 Isomer 2], the IC50 in assay [1] is 332 nM. It took 116 nM to reach a half-maximal effect in assay [2] (Homo sapiens, HCT-116, 2 h) (EC50).

Turning to `CC(CNC(C(=O)c1c[nH]c2ccccc12)c1ccccc1)c1ccc(Cl)cc1` (single isomer, unassigned) [26 Isomer 1], the IC50 in assay [1] is more than 30000 nM. Besides, the EC50 in assay [2] is more than 10000 nM.

Regarding `CCNC(=O)c1ccc2c(C(=O)[C@@H](NCCc3ccc(C#N)cc3)c3ccccc3)c[nH]c2c1` (single isomer, unassigned) [146 Isomer 1], in assay [1], the IC50 was found to be 786 nM. In assay [2], the EC50 amounted to 401 nM.
